Reference: BindingDB's records for patent US10087191 (Jiangsu Hengrui Medicine, 2018)

Target: T1, Estrogen receptor (Homo sapiens, UniProt P03372)
T1 sequence (P03372 whole entry): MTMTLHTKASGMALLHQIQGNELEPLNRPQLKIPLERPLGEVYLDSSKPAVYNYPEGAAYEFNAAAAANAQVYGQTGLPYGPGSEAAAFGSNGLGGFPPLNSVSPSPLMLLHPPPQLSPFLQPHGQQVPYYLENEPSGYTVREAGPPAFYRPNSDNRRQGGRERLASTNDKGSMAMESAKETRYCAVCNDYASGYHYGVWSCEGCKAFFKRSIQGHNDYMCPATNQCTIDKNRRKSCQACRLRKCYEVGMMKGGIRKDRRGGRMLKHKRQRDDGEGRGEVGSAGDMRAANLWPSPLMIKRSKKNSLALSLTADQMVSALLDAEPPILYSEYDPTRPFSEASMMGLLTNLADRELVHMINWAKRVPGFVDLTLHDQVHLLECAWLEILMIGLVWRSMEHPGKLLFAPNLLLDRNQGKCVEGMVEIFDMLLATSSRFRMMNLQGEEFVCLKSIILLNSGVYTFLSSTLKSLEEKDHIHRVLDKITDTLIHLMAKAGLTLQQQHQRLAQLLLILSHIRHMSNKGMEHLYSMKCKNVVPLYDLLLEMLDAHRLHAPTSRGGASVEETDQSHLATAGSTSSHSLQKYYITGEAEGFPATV
Test: Biological Assay

Row | IC50 | Structure (SMILES)
1 | 2.11 nM | CC1Cc2cc(-c3cnn(C(F)F)c3)ccc2C(c2c(F)cc(/C=C/C(=O)O)cc2F)N1CC(C)(C)F (stereo not given) [US10087191, Example 13]
2 | 1.52 nM | CCCn1cc(-c2ccc3c(c2)CC(C)N(CC(C)(C)F)C3c2c(F)cc(/C=C/C(=O)O)cc2F)cn1 (stereo not given) [US10087191, Example 18]
3 | 27.3 nM | CC1Cc2cc(-c3cnn(CCO)c3)ccc2C(c2c(F)cc(/C=C/C(=O)O)cc2F)N1CC(C)(C)F (stereo not given) [US10087191, Example 23]
4 | 19.8 nM | CC1Cc2cc(-c3ccc(N)nc3)ccc2C(c2c(F)cc(/C=C/C(=O)O)cc2F)N1CC(C)(C)F (stereo not given) [US10087191, Example 27]
5 | 1.17 nM | CCn1cc(-c2cc3c(cc2F)C(c2c(F)cc(/C=C/C(=O)O)cc2F)N(CC(C)(C)F)C(C)C3)cn1 (stereo not given) [US10087191, Example 17]
6 | 7.43 nM | CC1Cc2cc(-c3nnn(C)n3)ccc2C(c2c(F)cc(/C=C/C(=O)O)cc2F)N1CC(C)(C)F (stereo not given) [US10087191, Example 51]
7 | 15 nM | CC1Cc2c(oc3ccc(Br)cc23)C(c2c(F)cc(/C=C/C(=O)O)cc2F)N1CC(C)(C)F (stereo not given) [US10087191, Example 87]
8 | 2.28 nM | CC1Cc2cc(-c3cccnc3)ccc2C(c2c(F)cc(/C=C/C(=O)O)cc2F)N1CC(C)(C)F (stereo not given) [US10087191, Example 28]
9 | 11.4 nM | CCc1nc(-c2ccc3c(c2)CC(C)N(CC(C)(C)F)C3c2c(F)cc(/C=C/C(=O)O)cc2F)no1 (stereo not given) [US10087191, Example 46]
10 | 17.4 nM | CC1Cc2cc(-c3ccc(-c4cnn(C)c4)nc3)ccc2C(c2c(F)cc(/C=C/C(=O)O)cc2F)N1CC(C)(C)F (stereo not given) [US10087191, Example 61]
11 | 3.4 nM | Cc1ncc(-c2ccc3c(c2)CC(C)N(CC(C)(C)F)C3c2c(F)cc(/C=C/C(=O)O)cc2F)o1 (stereo not given) [US10087191, Example 49]
12 | 2.97 nM | CC1Cc2c(oc3c(F)cccc23)C(c2c(F)cc(/C=C/C(=O)O)cc2F)N1CC(C)(C)F (stereo not given) [US10087191, Example 84]

Row | Structure (SMILES) | IC50
13 | CC(C)CN1C(C)Cc2c(ccc3[nH]ncc23)C1c1c(F)cc(/C=C/C(=O)O)cc1F (stereo not given) [US10087191, Example 92] | 0.43 nM
14 | CCn1cc(-c2ccc3oc4c(c3c2)CC(C)N(CC(C)(C)F)C4c2c(F)cc(/C=C/C(=O)O)cc2F)cn1 (stereo not given) [US10087191, Example 76] | 1.39 nM
15 | CC1Cc2cc(-c3cnn(C)c3)c(F)cc2C(c2c(F)cc(/C=C/C(=O)O)cc2F)N1CC(C)(C)F (stereo not given) [US10087191, Example 16] | 1.36 nM
16 | CC1Cc2c(oc3cccc(F)c23)C(c2c(F)cc(/C=C/C(=O)O)cc2F)N1CC(C)(C)F (stereo not given) [US10087191, Example 73] | 0.45 nM
17 | CC1Cc2cc3c(cc2C(c2c(F)cc(/C=C/C(=O)O)cc2F)N1CC(C)(C)F)OCO3 (stereo not given) [US10087191, Example 1] | 0.77 nM
18 | CC1Cc2c(oc3ccccc23)C(c2c(F)cc(/C=C/C(=O)O)cc2F)N1CC(C)(C)F (stereo not given) [US10087191, Example 4] | 0.73 nM
19 | CC1Cc2sc3ccccc3c2C(c2c(F)cc(/C=C/C(=O)O)cc2F)N1CC(C)(C)F (stereo not given) [US10087191, Example 6] | 4.9 nM
20 | CC1Cc2c(ccc3[nH]ncc23)C(c2c(F)cc(/C=C/C(=O)O)cc2F)N1CC(C)(C)F (stereo not given) [US10087191, Example 70] | 0.77 nM
